US8247211B2, “Glycopeptide antibiotics” (American Cyanamid Company, priority 2001, dated 2012)
Values joined by “and” are separate entries in the source; they are usually repeats but may differ in a detail not shown here. Equal entries are not always repeated.

Legend:
[1] = tested on: Streptococcus pneumoniae (GC 1894), penicillin resistant strain; assay: Acute lethal infection in mice (ED50); assay type: in vivo; conditions: female CD-1 mice, intraperitoneal challenge, intravenous dose 30 min. after infection, 7 day survival ratios
Method in brief: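 Groups of five female CD-1 mice per dose got intravenous antibiotic in saline or 5% dextrose half an hour after intraperitoneal infection sufficient to kill controls within 24-48 hr. Seven-day survival data from three experiments were combined to derive ED50.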

[2] = Anatomic pathology (heart and kidney histopathology) in mice; assay type: in vivo, CD-1 mice; conditions: 20 mg/kg intravenously daily for 9 days, microscopic histopathology on day 10
Method in brief: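 Histopathology on H&E-stained, paraffin-embedded sections, subjectively scored (slight, mild, moderate, marked, severe) relative to untreated controls. Dosing: glycopeptide antibiotics 20 mg/kg intravenously once daily ×9 days in 20-day-old CD-1 mice, n=5 per group including vehicle.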

[3] = tested on: Staphylococcus sp.; assay: In vitro antibacterial evaluation: minimum inhibitory concentration (MIC), broth dilution method; assay type: cell-based; conditions: for MIC Staphylococcus aureus (ATCC 29213): strain ATCC 29213; for MIC Staphylococcus aureus (GC 1131): strain GC 1131; for MIC Staphylococcus aureus (GC 3051): strain GC 3051; for MIC Staphylococcus aureus (GC 3053): strain GC 3053; for MIC Staphylococcus aureus (GC 4541): strain GC 4541; for MIC Staphylococcus aureus (GC 4545): strain GC 4545; for MIC Staphylococcus haemolyticus (GC 4546): strain GC 4546; for MIC Coagulase Negative Staphylococcus (GC 4547): strain GC 4547; for MIC Coagulase Negative Staphylococcus (GC 6257): strain GC 6257
Method in brief: (§1)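 An MIC is reported for each organism as the least concentration giving inhibition, using broth dilution over 64-0.06 μg/mL with a 5×10^5 CFU/mL inoculum.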

[4] = tested on: Enterococcus sp.; assay: as above; assay type: cell-based; conditions: broth dilution, 18 hours at 35° C.
Method in brief: as §1

[5] = tested on: Streptococcus sp.; assay: as above; assay type: cell-based; conditions: broth dilution, 18 hours at 35° C.
Method in brief: as §1

[6] = tested on: Escherichia coli; assay: as above; assay type: cell-based; conditions: 5×10^5 CFU/mL, 18 hours at 35° C.
Method in brief: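 Values are minimum inhibitory concentrations, meaning the smallest antibiotic concentration that stops growth of the organism. They come from broth dilution in Muller-Hinton II […] per NCCLS guidance (M7-A2), using 5×10^5 CFU/mL and concentrations from 64 to 0.06 μg/mL.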

[7] = tested on: Staphylococcus aureus; assay: Zone of inhibition, assay plate Staphylococcus aureus; assay type: cell-based; conditions: 25 μl of extract per 5 mm well, Nutrient Agar pH 6.8, incubated overnight at 37° C.
Method: Inoculate 10 mL of Tryptic Soy Broth with a loopful of slant culture, Staphylococcus aureus, and place in a stationary rack at 37° C. After 16-18 hour incubation, the Optical Density (OD) of the culture is read @ A600 nm, using a 1:10 dilution. OD should be between 0.1-0.3, and if not adjust with Tryptic Soy Broth. A 40 mL sample of Nutrient Agar, pH 6.8 is inoculated with 90 μl of S. aureus culture and poured into a sterile petri dish. When the agar has solidified, wells (5 mm) are plated using an automated welling device. Wells are inoculated with 25 μl of extract and incubated overnight at 37° C. Zones of inhibition are measured and recorded the following morning.

[8] = broth dilution, 18 hours at 35° C.

N=C1NCC(C(O)C2NC(=O)C(Cc3ccc(OC4OC(CO)C(OC5OC6COC7(OC6C(O)C5O)C5CC6CC(C5)CC7C6)C(O)C4O)cc3)NC(=O)C(CC3CCCCC3)NC(=O)CNC(=O)C(CO)NC(=O)C(C(O)C3CNC(=N)N3C3OC(CO)C(O)C(O)C3O)NC2=O)N1 (stereo not shown) [Example 106, Cyclo[3-cyclohexylalanyl-O-[4-O-[4,6-O-(2-adamantylidene)hexopyranosyl]hexopyranosyl]-tyrosyl-3-(2-iminoimidazolidin-4-yl)seryl-3-(3-hexopyranosyl-2-iminoimidazolidin-4-yl)-serylserylglycyl]]
0: Anatomical Pathology (Day 10), Heart [2]
32 to 64 µg/mL: MIC Escherichia coli (ATCC 25922) [6] | MIC Escherichia coli (GC 4559) [6]
0.5 to 2 µg/mL: MIC Staphylococcus aureus (ATCC 29213) [3] | MIC Staphylococcus aureus (ATCC 29213) [3, 8] | MIC Staphylococcus aureus (GC 1131) [3] | MIC Staphylococcus aureus (GC 1131) [3, 8] | MIC Staphylococcus aureus (GC 3051) [3] | MIC Staphylococcus aureus (GC 3051) [3, 8] | MIC Staphylococcus aureus (GC 3053) [3] | MIC Staphylococcus aureus (GC 3053) [3, 8] | MIC Staphylococcus aureus (GC 4541) [3] | MIC Staphylococcus aureus (GC 4541) [3, 8] | MIC Staphylococcus aureus (GC 4545) [3] | MIC Staphylococcus aureus (GC 4545) [3, 8] | MIC Coagulase Negative Staphylococcus (GC 4547) [3] | MIC Coagulase Negative Staphylococcus (GC 4547) [3, 8] | MIC Enterococcus faecalis (ATCC 29212) ([4]; Enterococcus faecalis (ATCC 29212)) | MIC Enterococcus faecalis (GC 2242) ([4]; Enterococcus faecalis (GC 2242)) | MIC Enterococcus faecium (GC 2243) ([4]; Enterococcus faecium (GC 2243)) | MIC Enterococcus faecium (GC 4556) ([4]; Enterococcus faecium (GC 4556)) | MIC Enterococcus faecium (GC 4557) ([4]; Enterococcus faecium (GC 4557)) | MIC Enterococccus faecalis (ATCC 29212) ([4]; 5×10^5 CFU/mL) | MIC Enterococccus faecium (GC 2243) ([4]; 5×10^5 CFU/mL) | MIC Enterococccus faecium (GC 4556) ([4]; 5×10^5 CFU/mL) | MIC Enterococccus faecium (GC 4557) ([4]; 5×10^5 CFU/mL) | MIC Enterococcus faecalis (GC 2242) ([4]; 5×10^5 CFU/mL) | MIC Escherichia coli (GC 4560) [6]
0.5 to 1 µg/mL: MIC Staphylococcus haemolyticus (GC 4546) [3] | MIC Staphylococcus haemolyticus (GC 4546) [3, 8]
0.25 µg/mL: MIC Coagulase Negative Staphylococcus (GC 6257) [3] | MIC Coagulase Negative Staphylococcus (GC 6257) [3, 8]
<0.03 µg/mL: MIC Streptococcus agalactiae (GC 4564) ([5]; Streptococcus agalactiae (GC 4564)) | MIC Streptococcus pneumoniae (ATCC 6301) ([5]; Streptococcus pneumoniae (ATCC 6301)) | MIC Streptococcus pneumoniae (GC 1894) ([5]; Streptococcus pneumoniae (GC 1894)) | MIC Streptococcus pneumoniae (GC 4565) ([5]; Streptococcus pneumoniae (GC 4565)) | MIC Streptococcus pyogenes (GC 4563) ([5]; Streptococcus pyogenes (GC 4563)) | MIC Streptococcus agalactiae (GC 4564) ([5]; 5×10^5 CFU/mL) | MIC Streptococcus pneumoniae (GC 1894) ([5]; 5×10^5 CFU/mL) | MIC Streptococcus pneumoniae (GC 4565) ([5]; 5×10^5 CFU/mL) | MIC Streptococcus pneumonine (ATCC 6301) ([5]; 5×10^5 CFU/mL) | MIC Streptococcus pyogenes (GC 4563) ([5]; 5×10^5 CFU/mL)
0.07 mg/kg: median effective dose (ED50), Streptococcus pneumoniae (GC 1894) [1]
1 to 2 µg/mL: MIC Enterococcus avium (GC 4558) ([4]; Enterococcus avium (GC 4558)) | MIC Enterococcus faecalis (GC 2691) ([4]; Enterococcus faecalis (GC 2691)) | MIC Enterococcus faecalis (GC 3059) ([4]; Enterococcus faecalis (GC 3059)) | MIC Enterococcus faecalis (GC 4552) ([4]; Enterococcus faecalis (GC 4552)) | MIC Enterococcus faecalis (GC 4553) ([4]; Enterococcus faecalis (GC 4553)) | MIC Enterococcus faecalis (GC 4554) ([4]; Enterococcus faecalis (GC 4554)) | MIC Enterococcus faecalis (GC 6189) ([4]; Enterococcus faecalis (GC 6189)) | MIC Enterococccus avium (GC 4558) ([4]; 5×10^5 CFU/mL) | MIC Enterococccus faecalis (GC 2691) ([4]; 5×10^5 CFU/mL) | MIC Enterococccus faecalis (GC 3059) ([4]; 5×10^5 CFU/mL) | MIC Enterococccus faecalis (GC 4552) ([4]; 5×10^5 CFU/mL) | MIC Enterococccus faecalis (GC 4553) ([4]; 5×10^5 CFU/mL) | MIC Enterococccus faecalis (GC 4554) ([4]; 5×10^5 CFU/mL) | MIC Enterococccus faecalis (GC 6189) ([4]; 5×10^5 CFU/mL)

CCCC(=O)OC1C(O)C(CO)OC(OC2C(CO)OC(Oc3ccc(CC4NC(=O)C(C(C)c5ccccc5)NC(=O)CNC(=O)C(CO)NC(=O)C(C(O)C5CNC(=N)N5C5OC(CO)C(O)C(O)C5O)NC(=O)C(C(O)C5CNC(=N)N5)NC4=O)cc3)C(O)C2O)C1O (stereo not drawn) [Example 272b, Cyclo[glycyl-β-methylphenylalanyl-O-[4-O-(3-O-butanoyl-hexopyranosyl)-hexopyranosyl]tyrosyl-3-(2-iminoimidazolidin-4-yl)seryl-3-(3-hexopyranosyl-2-iminoimidazolidin-4-yl)serylseryl]]
8 mm: Zone of Inhibition vs. S. aureus [7]

CCCCCC(=O)OC1C(O)C(CO)OC(OC2C(CO)OC(Oc3ccc(CC4NC(=O)C(C(C)c5ccccc5)NC(=O)CNC(=O)C(CO)NC(=O)C(C(O)C5CNC(=N)N5C5OC(CO)C(O)C(O)C5O)NC(=O)C(C(O)C5CNC(=N)N5)NC4=O)cc3)C(O)C2O)C1O (stereo not shown) [Example 273b]
9 mm and 8 mm: Zone of Inhibition vs. S. aureus [7]

CCCCCCC(=O)OC1C(OC2C(CO)OC(Oc3ccc(CC4NC(=O)C(C(C)c5ccccc5)NC(=O)CNC(=O)C(CO)NC(=O)C(C(O)C5CNC(=N)N5C5OC(CO)C(O)C(O)C5O)NC(=O)C(C(O)C5CNC(=N)N5)NC4=O)cc3)C(O)C2O)OC(CO)C(O)C1O (stereo not drawn) [Example 274a, Cyclo[glycyl-β-methylphenylalanyl-O-[4-O-(2-O-heptanoyl-hexopyranosyl)-hexopyranosyl]tyrosyl-3-(2-iminoimidazolidin-4-yl)seryl-3-(3-hexopyranosyl-2-iminoimidazolidin-4-yl)serylseryl]]
9 mm: Zone of Inhibition vs. S. aureus [7]

CCCCCCC(=O)OC1C(O)C(CO)OC(OC2C(CO)OC(Oc3ccc(CC4NC(=O)C(C(C)c5ccccc5)NC(=O)CNC(=O)C(CO)NC(=O)C(C(O)C5CNC(=N)N5C5OC(CO)C(O)C(O)C5O)NC(=O)C(C(O)C5CNC(=N)N5)NC4=O)cc3)C(O)C2O)C1O (stereo not drawn) [Example 274b, Cyclo[glycyl-β-methylphenylalanyl-O-[4-O-(3-O-heptanoyl-hexopyranosyl)-hexopyranosyl]tyrosyl-3-(2-iminoimidazolidin-4-yl)seryl-3-(3-hexopyranosyl-2-iminoimidazolidin-4-yl)serylseryl]]
10 mm: Zone of Inhibition vs. S. aureus [7]
